Reference: article PMC10218254 (International Journal of Molecular Sciences, 2023)
Where two headings read alike, the source gives them in different places.

Columns and labels:
[1] = Cytotoxicity, cell counting kit-8 (CCK8) assay; conditions: human, CC50, HEK293T cells
HEK293T cells = test: Cytotoxicity, cell counting kit-8 (CCK8) assay; conditions: HEK293T cells, 24 h
SARS-CoV-2 PL^pro [2] = target: T1, SARS-CoV-2 PL^pro (Severe acute respiratory syndrome coronavirus 2, UniProt P0DTD1); assay type: binding; conditions: 40 μM protease, 200 μM compound; for Tm of SARS-CoV-2 PLpro incubated with compound: apo protease 43.3 °C
SARS-CoV-2 PL^pro [3] = target: T1, SARS-CoV-2 PL^pro; conditions: cited from earlier work
SARS-CoV-2 PL^pro [4] = target: T1, SARS-CoV-2 PL^pro; test: biochemical; conditions: for IC50: 60 min incubation
SARS-CoV-2 PL^pro [5] = target: T1, SARS-CoV-2 PL^pro; test: biochemical; conditions: Ub-AMC substrate, 60 min incubation
SARS-CoV-2 PL^pro [6] = target: T1, SARS-CoV-2 PL^pro; test: biochemical; conditions: 50 nM protease; for Ki: read-out: Ki (binding affinity of initial reversible binding); for kinact: read-out: kinact (rate constant of covalent bond formation) (converted)
SARS-CoV-2 PL^pro [7] = target: T1, SARS-CoV-2 PL^pro; test: cell-based; conditions: HEK293T cells; for EC50: 48 h
SARS-CoV PL^pro = SARS-CoV PL^pro (Severe acute respiratory syndrome coronavirus, UniProt P0C6X7); test: biochemical
MERS-CoV PL^pro = MERS-CoV PL^pro (Middle East respiratory syndrome-related coronavirus, UniProt K9N7C7); test: biochemical
MERS-CoV PL^pro, sequence (K9N7C7 1552-1823 limits assumed): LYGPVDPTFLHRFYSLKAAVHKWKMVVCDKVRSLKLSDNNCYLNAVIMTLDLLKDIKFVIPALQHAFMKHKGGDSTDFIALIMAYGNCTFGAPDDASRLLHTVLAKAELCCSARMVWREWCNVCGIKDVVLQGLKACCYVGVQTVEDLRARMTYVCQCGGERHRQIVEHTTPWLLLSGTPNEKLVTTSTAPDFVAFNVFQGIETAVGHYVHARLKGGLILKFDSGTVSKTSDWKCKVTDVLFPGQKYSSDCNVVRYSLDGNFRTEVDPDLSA

| Compound | CC50 at 24 h [1] | CC50 (HEK293T cells) | Tm of SARS-CoV-2 PLpro incubated with compound (SARS-CoV-2 PL^pro [2]) | IC50 (SARS-CoV-2 PL^pro [4]; RLRGG-AMC substrate) | IC50 (SARS-CoV-2 PL^pro [5]) | kinact/KI (SARS-CoV-2 PL^pro [6]) | Ki (SARS-CoV-2 PL^pro [6]) | kinact (SARS-CoV-2 PL^pro [6]) | EC50 (SARS-CoV-2 PL^pro [7]) | also measured |
| --- | --- | --- | --- | --- | --- | --- | --- | --- | --- | --- |
| COC(=O)/C=C/C(=O)NNC(=O)CCc1ccccc1C(=O)NC(C)c1cccc2ccccc12 (stereo not drawn) [compound 3, reference compound] | 58.3 ± 22.1 µM | 58.3 µM | – | – | – | – | – | – | – | – |
| GRL0617 [reference compound] | – | > 200 µM | 50.4 °C | – | – | – | – | – | – | – |
| COC(=O)/C=C/CNC(=O)CNC(=O)[C@H](CN)NC(=O)[C@H](CCc1ccc(O)cc1)NC(C)=O [VIR251] | – | – | – | – | – | – | – | – | – | IC50 (SARS-CoV-2 PL^pro [3]): ~50 µM |
| COC(=O)/C=C/C(=O)NNC(=O)CNC(=O)CNC(=O)C1CCN(C(C)c2cccc3ccccc23)CC1 (stereo not drawn) [compound 4, Methyl (E)-4-(2-((1-(1-(Naphthalen-1-yl)ethyl)piperidine-4-carbonyl)glycylglycyl)hydrazinyl)-4-oxobut-2-enoate] | > 200 µM | – | – | 0.23 µM | 0.32 µM | 265 M⁻¹ s⁻¹ | 4.65 µM | 0.00123 s⁻¹ | > 200 µM | inhibitory potency higher than compound 2 (SARS-CoV-2 PL^pro [4]; enzymatic inhibition assay): ~ 1 fold; Tm increase compared to apo protease (SARS-CoV-2 PL^pro [2]): 15.1 °C; inhibitory effect in cell-based protease assay (SARS-CoV-2 PL^pro [7]): hardly has an inhibitory effect |
| COC(=O)/C=C/CNC(=O)CNC(=O)CNC(=O)C1CCN(C(C)c2cccc3ccccc23)CC1 (stereo not drawn) [compound 2, Methyl (E)-4-(2-(2-(1-(1-(Naphthalen-1-yl)ethyl)piperidine-4-carboxamido)acetamido)acetamido)but-2-enoate] | ~180 µM | ~180 µM | 68.0 °C | 0.46 µM | 0.46 µM | 160 M⁻¹ s⁻¹ | 5.32 µM | 0.00085 s⁻¹ | 3.61 µM | change in inhibitory activities in the presence and absence of DTT (SARS-CoV-2 PL^pro [4]; 4 mM DTT, varied concentrations): no apparent change; improvement in potency (IC50) compared to VIR251 (SARS-CoV-2 PL^pro [4]; RLRGG-AMC substrate): about 100 fold; improvement in potency (IC50) compared to compound 1 (SARS-CoV-2 PL^pro [4]; RLRGG-AMC substrate): ~5 fold; increase in potency (IC50) compared to positive control GRL0617 (SARS-CoV-2 PL^pro [4]; RLRGG-AMC substrate): 2 fold; IC50 (SARS-CoV PL^pro): 0.39 µM; IC50 (MERS-CoV PL^pro): > 100 µM; inhibitory activity towards MERS-CoV PLpro (MERS-CoV PL^pro): basically ineffective; improvement in EC50 compared to GRL0617 (SARS-CoV-2 PL^pro [7]): ~ 4.4 fold |
| COC(=O)/C=C/CNC(=O)CNC(=O)[C@H](CN)NC(=O)[C@H](CCc1nc2ccccc2s1)NC(C)=O [VIR250] | – | – | – | – | – | – | – | – | – | IC50 (SARS-CoV-2 PL^pro [3]; read-out: IC50): ~50 µM |
